# Results reported in patent US20200268728A1, “DRUG TARGETING CANCER STEM CELL” (Sumitomo Dainippon Pharma Co., Ltd., priority 2016, published 2020).
# Structures can show the parent of a compound that is named as a salt.
# System: HCT-116 cells
# Test: Test for inhibiting sphere-forming ability of cancer cells (Test Example 1)
# Assay type: cell-based, human
# Conditions: Homo sapiens, 96 h, non-adherent serum-free sphere culture, 4 days, CellTiter-Glo, read-out: IC50 (μmol/L), Sphere IC50 value, concentration for 50% inhibition of cell proliferation
# Experimental: The reliable methods established for measuring the self-renewal ability of cells which is one of the CSC's properties include a method for measuring the sphere-forming ability of cancer cells in non-adherent condition in the absence of serum (Cancer Res 65, 5506-5511 (2005)). HCT-116 cells were available from the American Type Culture Collection (ATCC). HCT-116 cells were cultured at 37° C. and 5% CO2 using the McCoy's 5a medium containing 10% fetal bovine serum (FBS), 100 U/ml penicillin, and 100 μg/ml streptomycin. HCT-116 cells were seeded in a 384 Well Black Clear Bottom Ultra-Low Attachment Microplate (Corning Cat. No. 3827) in an amount of 350-800 cells/well using the DMEM/F12 medium containing 2% B27 supplement (GIBCO), 20 ng/mL epidermal growth factor (EGF) (peprotech), 10 ng/mL basic fibroblast growth factor (bFGF) (peprotech), 5 μg/mL insulin (Sigma), and 1% penicillin/streptomycin. The test compounds were added into each well to adjust the final concentration of DMSO to 0.1%, and the cells were cultured for 4 days. The number of viable cells in each well was then measured with CellTiter-Glo® Luminescent Cell Viability Assay (Promega) to calculate the concentration of each test compound for 50% inhibition of cell proliferation (Sphere IC50 value; μmol/L).
# The experiment of Test Example 1 was performed for the compounds of each Example.
row,Compound,IC50
1,"O=C(Nc1ccc2c(c1)CCCN2)c1cn(Cc2cc(F)c(F)c(F)c2)cn1 [Example 33, N-(1,2,3,4-Tetrahydroquinolin-6-yl)-1-(3,4,5-trifluorobenzyl)-1H-imidazole-4-carboxamide dihydrochloride]",0.66 µmol/L
2,O=C(Nc1cn(Cc2cc(F)c(F)c(F)c2)cn1)c1csc(CO)n1 [Example 19],0.077 µmol/L
3,O=C(Nc1cn(Cc2cccc(C(F)(F)F)c2)cn1)c1cnc(CO)c(C(F)(F)F)c1 [Example 25],0.07 µmol/L
4,O=C(Nc1ccc2nc(CO)ccc2c1)c1cn(Cc2cc(F)c(F)c(F)c2)cn1 [Example 29],0.079 µmol/L
5,"O=C(Nc1ccc(CO)nc1)c1cn(Cc2cc(F)c(F)c(F)c2)cn1 [Example 28, N-[6-(Hydroxymethyl)pyridin-3-yl]-1-(3,4,5-trifluorobenzyl)-1H-imidazole-4-carboxamide]",< 0.01 µmol/L
6,O=C(Nc1cn(Cc2cccc(C(F)(F)F)c2)cn1)c1csc(CO)n1 [Example 18],0.024 µmol/L
7,"O=C(Nc1cn(Cc2cc(F)c(F)c(F)c2)cn1)c1ccc(CO)nc1 [Example 20, 6-(Hydroxymethyl)-N-[1-(3,4,5-trifluorobenzyl)-1H-imidazol-4-yl]nicotinamide]",0.007 µmol/L
8,O=C(Nc1cn(Cc2cccc(C(F)(F)F)c2)cn1)c1cc(CO)on1 [Example 27],0.653 µmol/L
9,O=C(Nc1cn(Cc2cccc(Cl)c2)cn1)c1ccc(CO)nc1 [Example 21],0.056 µmol/L
10,"O=C(Nc1cn(Cc2cccc(C(F)(F)F)c2)cn1)c1ccc(CO)cn1 [Example 15, 5-(Hydroxymethyl)-N-{1-[3-(trifluoromethyl)benzyl]-1H-imidazol-4-yl}picolinamide]",0.03 µmol/L
11,"Nc1cc(C(=O)Nc2cn(Cc3cc(F)c(F)c(F)c3)cn2)cnc1CO [Example 59, 5-amino-6-(hydroxymethyl)-N-[1-(3,4,5-trifluorobenzyl)-1H-imidazol-4-yl]nicotinamide]",0.01 µmol/L
12,"Nc1cc(C(=O)Nc2cn(Cc3cccc(C(F)(F)F)c3)cn2)cnc1CO [Example 58, 5-Amino-6-(hydroxymethyl)-N-{1-[3-(trifluoromethyl)benzyl]-1H-imidazol-4-yl}nicotinamide]",0.029 µmol/L
13,"O=C(Nc1cn(Cc2cccc(C(F)(F)F)c2)cn1)c1ccc(CO)nc1 [Example 22, 6-(hydroxymethyl)-N-{1-[3-(trifluoromethyl)benzyl]-1H-imidazol-4-yl}nicotinamide]",< 0.01 µmol/L
14,"O=C(Nc1cn(Cc2cccc(C(F)(F)F)c2)cn1)c1cnc(CO)c(C(F)F)c1 [Example 23, 5-(difluoromethyl)-6-(hydroxymethyl)-N-{1-[3-(trifluoromethyl)benzyl]-1H-imidazol-4-yl}nicotinamide]",< 0.01 µmol/L
15,"Cc1cc(C(=O)Nc2cn(Cc3cc(F)c(F)c(F)c3)cn2)cnc1CO [Example 55, 6-(Hydroxymethyl)-5-methyl-N-[1-(3,4,5-trifluorobenzyl)-1H-imidazol-4-yl]nicotinamide]",< 0.01 µmol/L
16,O=C(Nc1cn(Cc2cccc(C(F)(F)F)c2)cn1)c1cnc(CO)cn1 [Example 26],0.053 µmol/L

# Same assay, conditions: non-adherent serum-free sphere culture, 4 days, CellTiter-Glo, read-out: IC50 (μmol/L), Sphere IC50 value, concentration for 50% inhibition of cell proliferation
row,Compound,IC50
1,"COc1ccc(C(=O)Nc2cn(Cc3ccc(F)cc3F)cn2)cc1OC [Example 12, N-[1-(2,4-difluorobenzyl)-1H-imidazol-4-yl]-3,4-dimethoxybenzamide]",0.09 µmol/L

# System: HCT116 cells
# Test: Combination with Example 24, inhibitory effect on sphere-forming ability (Test Example 6)
# Assay type: cell-based, human
# Conditions: HCT116 sphere culture, test compound combined with Example 24 (2-1000 nmol/L), 4 days
row,Compound,"sCI, minimum (Ld)/(Lc)"
1,CC[C@@H]1C(=O)N(C)c2cnc(Nc3ccc(C(=O)NC4CCN(C)CC4)cc3OC)nc2N1C1CCCC1 [BI 2536],0.623
2,CN(C)CCOc1ccc(/C(=C(/CCCl)c2ccccc2)c2ccccc2)cc1 [Toremifene],0.020
3,CC(C)n1c(/C=C/C(O)CC(O)CC(=O)O)c(-c2ccc(F)cc2)c2ccccc21 (centres unmarked) [Fluvastatin],0.163
4,CCC(C)(C)C(=O)O[C@H]1C[C@@H](C)C=C2C=C[C@H](C)[C@H](CC[C@@H]3C[C@@H](O)CC(=O)O3)[C@H]21 [Simvastatin],0.257
5,O=C(Nc1ccccc1-c1cn2c(CN3CCNCC3)csc2n1)c1cnc2ccccc2n1 [SRT1720],0.007
6,CCN(CC)CCNC(=O)c1c(C)[nH]c(/C=C2\C(=O)Nc3ccc(-c4csc(-c5ccccc5)n4)cc32)c1C [Amcasertib],0.017
7,CN1CCC(CNc2ccc3ncc(-c4cccc(OC(F)(F)F)c4)n3n2)CC1 [SGI-1776],0.026
8,CC[C@H](C)C(=O)O[C@H]1C[C@H](O)C=C2C=C[C@H](C)[C@H](CC[C@@H](O)C[C@@H](O)CC(=O)O)[C@H]21 [Pravastatin],0.810
9,CC[C@H](C)C(=O)O[C@H]1C[C@@H](C)C=C2C=C[C@H](C)[C@H](CC[C@@H]3C[C@@H](O)CC(=O)O3)[C@H]21 [Lovastatin],0.150
10,CCCCCCCCc1ccc(CCC(N)(CO)CO)cc1 [Fingolimod],0.013
11,CC(C)c1c(C(=O)Nc2ccccc2)c(-c2ccccc2)c(-c2ccc(F)cc2)n1CC[C@@H](O)C[C@@H](O)CC(=O)O [Atorvastatin],0.3
12,CC(=O)c1cc2c(o1)C(=O)c1ccccc1C2=O [Napabucasin],0.159
13,COC1=CC(c2cc3ccccc3[nH]2)=N/C1=C\c1[nH]c(C)cc1C [Obatoclax],0.103
14,Cc1nc(Nc2ncc(C(=O)Nc3c(C)cccc3Cl)s2)cc(N2CCN(CCO)CC2)n1 [Dasatinib],0.171
15,CS(=O)(=O)CCNCc1ccc(-c2ccc3ncnc(Nc4ccc(OCc5cccc(F)c5)c(Cl)c4)c3c2)o1 [Lapatinib],0.024
16,CC/C(=C(\c1ccccc1)c1ccc(OCCN(C)C)cc1)c1ccccc1 [Tamoxifen],0.046
17,Raloxifen,0.010

# System: H460 cells
# Test: as above
# Assay type: cell-based, human
# Conditions: H460 sphere culture, test compound combined with Example 24 (2-1000 nmol/L), 4 days
# Experimental: After the culture, CellTiterGlo (Promega) was added into all of the wells, and the plate is allowed to stand at room temperature for 10 minutes to measure the intensity of luminescence of each well. […] The formula for calculating the rate is shown below.
# Sphere formation rate (%)=(Lsample)/(Lcontrol)×100
# The value obtained by dividing the sphere formation rate by 100 and subtracting the calculated value from 1 is defined as a sphere formation inhibitory effect. The formula for calculating the effect is shown below.
# Sphere formation inhibitory effect=1−(Sphere formation rate/100)
# Also, the measured cell survival rate of the combination was defined as (Ld).
# The minimum value thereof (sCI) was used as the criteria for screening.
row,Compound,"sCI, minimum (Ld)/(Lc)"
1,Cc1c[nH]c(-c2cnc(NCCNc3ccc(C#N)cn3)nc2-c2ccc(Cl)cc2Cl)n1 [CHIR-99021],0.378
2,Cn1cncc1[C@@](N)(c1ccc(Cl)cc1)c1ccc2c(c1)c(-c1cccc(Cl)c1)cc(=O)n2C [Tipifarnib],0.564
3,O=C(CCCCCCC(=O)Nc1ccccc1)NO [Vorinostat],0.573
4,CC(C)(C)Cn1c(N)nc2ccc(-c3[nH]c(C(C)(C)C)nc3-c3ccc(F)cc3)nc21 [LY2228820],0.020
5,Cc1c(NC(=O)OC[C@@H]2COCCN2)cn2ncnc(Nc3ccc4c(cnn4Cc4cccc(F)c4)c3)c12 [BMS-599626],0.081
6,COc1ccc2cc(-c3nc(-c4ccc([S+](C)[O-])cc4)[nH]c3-c3ccncc3)ccc2c1 (centres unmarked) [Tie2 kinase inhibitor],0.123
7,Cc1ccc(F)c(NC(=O)Nc2ccc(-c3cccc4[nH]nc(N)c34)cc2)c1 [Linifanib],0.142
8,Cc1ccc(NC(=O)c2ccc(CN3CCN(C)CC3)cc2)cc1Nc1nc(-c2cccnc2)cs1 [Masitinib],0.010
9,CCc1cc(Nc2nccc(-c3c(-c4ccc(OC)c(C(=O)Nc5c(F)cccc5F)c4)nc4ccccn34)n2)c(OC)cc1N1CCC(N2CCN(S(C)(=O)=O)CC2)CC1 [GSK1904529A],0.166
10,C=C1/C(=C\C=C2/CCC[C@]3(C)[C@@H]([C@H](C)/C=C/[C@H](C)C(C)C)CC[C@@H]23)C[C@@H](O)C[C@@H]1O [Doxercalciferol],0.304
11,C=CCNC1=C2C[C@@H](C)C[C@H](OC)[C@H](O)[C@@H](C)/C=C(\C)[C@H](OC(N)=O)[C@@H](OC)/C=C\C=C(/C)C(=O)NC(=CC1=O)C2=O [Tanespimycin],0.386
12,COc1ccc(COc2cc3oc(=O)c4cc(C(C)O)ccc4c3cc2OC)cc1 (centres unmarked) [Palomid 529],0.428
13,Cc1cc2c(C(C)C)c(O)c(O)c(C=O)c2c(O)c1-c1c(C)cc2c(C(C)C)c(O)c(O)c(C=O)c2c1O [Gossypol],0.026
14,CCCCCCCCc1ccc(CCC(N)(CO)CO)cc1 [Fingolimod],0.007
15,COC1=CC(c2cc3ccccc3[nH]2)=N/C1=C\c1[nH]c(C)cc1C [Obatoclax],0.061
16,Cn1cc(-c2ccc3nnc(C(F)(F)c4ccc5ncccc5c4)n3n2)cn1 [JNJ-38877605],0.711
17,Cc1nc(Nc2ncc(C(=O)Nc3c(C)cccc3Cl)s2)cc(N2CCN(CCO)CC2)n1 [Dasatinib],0.514
18,CS(=O)(=O)CCNCc1ccc(-c2ccc3ncnc(Nc4ccc(OCc5cccc(F)c5)c(Cl)c4)c3c2)o1 [Lapatinib],0.076
19,Cc1cccc(Nc2nc(-c3ccncc3)cs2)c1 [STF-62247],0.221
20,CN1CCN(c2nc(C3=C(c4c[nH]c5ccccc45)C(=O)NC3=O)c3ccccc3n2)CC1 [Sotrastaurin],0.030
21,Cc1ccc(Nc2nccc(N(C)c3ccc4c(C)n(C)nc4c3)n2)cc1S(N)(=O)=O [Pazopanib],0.507
22,COc1ccc(-c2ccc3c(N4CCOC[C@@H]4C)nc(N4CCOC[C@@H]4C)nc3n2)cc1CO [AZD8055],0.651
